Test results as given in patent EP1273297A1, “Vitamin E for the treatment of diseases in which the binding of the transcription factor NF-KB and/or AP-1 to promoter target sites has a beneficial effect (eg AIDS, cardiac infarction)” (Deutsches Krebsforschungszentrum Stiftung des öffentlichen …, priority 2001, dated 2003).

Experiments:
Jurkat J-27 T cells = assay: AICD of Jurkat J-27 T cells, apoptotic nuclei by DNA fragmentation; format: cell-based; settings: J-27 cells, plate bound α-CD3 (OKT3, 50 µg/ml) 24 h (Fig. 2A, B)
Procedure: J-27 T cells were induced either with PMA (10 ng/ml) Sigma (St. Louis, MO, USA) and ionomycin (0.5 µM), Calbiochem (Bad Soden/Ts, Germany) or with plate bound α-CD3 (OKT3, 50 µg/ml) for 24 h in the presence of vitamin E or equal amount of the vitamin E solvent ethanol. Apoptotic nuclei were measured by determination of DNA fragmentation (Dhein et al., Nature 373 (1995), 438).
J-27 cells were stimulated in the absence or presence of CD95-Fc (50 µg/ml) or NOKI (50 µg/ml). BD-Pharmingen (Heidelberg, Germany), for 24 h.
(§1) To further investigate the molecular mechanism by which vitamin E attenuates AICD, several Jurkat T cell sub-clones susceptible to T-cell-receptor (TCR)-mediated-activation-induced apoptosis were selected. Data from one of the representative clones, clone 27 (J-27) is presented here. Activation of T cells through the T cell receptor can be mimicked by stimulation with the phorbol ester (PMA) and calcium ionophores (ionomycin). […] Therefore, it is unlikely that vitamin E directly interferes with signals downstream of the CD95 receptor. […] Thus, vitamin E may reduce CD95L expression at the transcriptional level and, therefore, attenuate AICD in J-27 cells. Experimental details are given in the legend to Figure 2.

[1] = test system: human peripheral blood T cells; assay: AICD of day 6 prestimulated peripheral blood T cells restimulated with plate-bound α-CD3, cell death by propidium iodide uptake; format: cell-based; settings: depending on the blood donors; vitamin E at physiological concentrations
Procedure: Freshly isolated blood T cells were stimulated by PHA and cultured in the presence of IL-2 for 6 days as described in Klas et al., Int. Immunol. 5 (1993), 625. The day 6 prestimulated T cells were then treated without or with 25 µM vitamin E (VE) Sigma (St. Louis, MO, USA) for 1 h and subsequently cultured in 96-well-flat-bottomed plates coated with α-CD3 (OKT3, 50 µg/ml; (DKFZ, Prof. Krammer) in the absence or presence of CD95-Fc (50 µg/ml; (DKFZ, Prof. Krammer, Dhein et al., Nature 373 (1995), 438) or control human (50 µg/ml) IgG-1. Cell death was assessed after a further 48 h by propidium iodide (PI) uptake (Klas et al., Int. Immunol. 5 (1993), 625.
Since activation-induced-cell-death (AICD) is a major cause of T cell depletion in AIDS and since supplementation of vitamin E is shown to increase T cell numbers, it was investigated whether vitamin E could protect from T cell depletion by AICD. To analyze the effect of vitamin E on T cell death, freshly isolated peripheral blood T cells were prestimulated for 6 days (referred to as day 6 cells) and subsequently restimulated via the TCR by plate-bound α-CD3 antibodies. […] CD95 (APO-1/Fas) and its ligand (CD95L) are known to play a major role in AICD of T cells. […] The concentration of vitamin E in plasma from healthy individuals normally ranges from 12-35 µM. Thus, vitamin E at physiological concentrations may attenuate AICD. […]

IFNγ mRNA [2] = assay: IFNγ mRNA by RT-PCR (control) in J-27 T cells stimulated by PMA and ionomycin; format: cell-based; settings: J-27 cells, 50 µM vitamin E, PMA/ionomycin (Fig. 2E)
Procedure: J-27 T cells were cultured in the absence or presence of 50 µM vitamin E for 1 h and then stimulated by PMA (10 ng/ml) and ionomycin (0.5 µM) for the indicated times. CD95L mRNA expression was analyzed by RT-PCR. Primers for IFNγ and β-actin were used as controls.
as §1

AP-1 [3] = assay: EMSA, nuclear extracts of J-27 T cells, binding to CD95L promoter AP-1 site; format: cell-based; settings: J-27 nuclear extracts, PMA/ionomycin 2 h, 50 µM vitamin E added 1 h before induction (Fig. 3A)
Procedure: (A)^32P-labeled oligonucleotides containing the CD95L NF-κB (at the promoter -530 and -50 region) (Li-Weber et al., Eur. J. Immunol. 30 (2000), 661) and AP-1 (at the promoter +90 region) (Eichhorst et al., Mol. Cell. Biol. 20 (2000), 7826) binding sequences were analyzed by EMSA as described (Li-Weber et al., (2000). The EMSA probes had the following sequences: • CD95L NF-κB at-530: 5'-[…]-3' • CD95L NF-κB at-50: 5'-[…]-3' • CD95L AP-1 at +90: 5'-[…]-3'
Nuclear extracts were prepared from J-27 T cells either non-induced (-) or induced (+) for 2 h by PMA (10 ng/ml) and ionomycin (0.5 µM) in the absence (-) or presence (+) of 50 µM vitamin E (VE) (added 1 h before induction). The inducible complex corresponding to NF-κB and AP-1 were indicated. A NF-Y binding oligonucleotide 5'[…]-3' was used for equal loading of nuclear extracts.
It was investigated whether vitamin E affects NF-KB and AP-1 binding to the CD95L promoter target sites. Nuclear extracts were prepared from J-27 T cells stimulated in the presence or absence of vitamin E. The NF-κB and AP-1 binding sites contained in the CD95L promoter were used as probes in an electrophoretic-mobility-shift-assay (EMSA). Stimulation of T cell with PMA and ionomycin induced binding of nuclear factors to the NF-κB and AP-1 sites of the CD95L promoter (Fig. 3A). […]

IFNγ mRNA [4] = assay: IFNγ mRNA levels by RT-PCR (control) in day 6 T cells stimulated with plate bound α-CD3; format: cell-based, human; settings: 25 µM vitamin E 1 h, then α-CD3 12 h (Fig. 1B)
Procedure: The day 6 T cells were cultured in the absence or presence of 25 µM vitamin E for 1 h and then stimulated for 12 h with plate bound α-CD3. The mRNA was analyzed by RT-PCR using primers specific for CD95L (Eichhorst et al., Mol. Cell. Biol. 20 (2000), 7826) . For controls, primers for IFNγ and β-actin were used. The primers had the following sequences: • CD95L: sense-5'-[…]-3' antisense-5'[…]-3' • IFN-γ: sense-5'[…]-3' antisense-5'[…]-3' • human β-actin: sense-5'[…]-3' antisense-5'[…]-3'
Since activation-induced-cell-death (AICD) is a major cause of T cell depletion in AIDS and since supplementation of vitamin E is shown to increase T cell numbers, it was investigated whether vitamin E could protect from T cell depletion by AICD. To analyze the effect of vitamin E on T cell death, freshly isolated peripheral blood T cells were prestimulated for 6 days (referred to as day 6 cells) and subsequently restimulated via the TCR by plate-bound α-CD3 antibodies. […] CD95 (APO-1/Fas) and its ligand (CD95L) are known to play a major role in AICD of T cells. […] The concentration of vitamin E in plasma from healthy individuals normally ranges from 12-35 µM. Thus, vitamin E at physiological concentrations may attenuate AICD. Indeed, depending on the blood donors, vitamin E reduced AICD by 20-50%. […]

AP-1 [5] = assay: Luciferase reporter assay in J-27 T cells, three copies of the CD95L promoter AP-1 motif; format: cell-based; settings: J-27 cells, 50 µM vitamin E 1 h, PMA/ionomycin 8 h (Fig. 4)
Source text: (§2) J-27 T cells were transiently transfected with the luciferase reporter constructs containing the 0.86-kb CD95L promoter (Li-Weber et al., Eur. J. Immunol. 30 (2000), 661), or three copies of the NF-κB binding sites at -530 or -50 region (Li-Weber et al., Eur. J. Immunol. 30 (2000), 661) or the AP-1 motif at +90 region (Eichhorst et al., Mol. Cell. Biol. 20 (2000), 7826) of the CD95L promoter as described in Li-Weber et al., 2000. All promoter constructs are described in the cited references. A luciferase reporter construct containing three copies of the Egr consensus binding site was used as a control (Li-Weber et al., Eur. J. Immunol. 29 (1999), 3017). After overnight culture, the cells were divided and treated with vitamin E (VE) (50 µM) or the vitamin E solvent ethanol for 1 h and than further cultured in the absence (empty box) or presence (black box) of PMA (10 ng/ml) and ionomycin (0.5 µM). Luciferase activity was determined after 8 h of stimulation. Results represent the average of three to five independent transfection experiments.
(§3) To further investigate the effect of vitamin E on CD95L expression, the CD95L promoter (-860 to +100) or a minimal TATA promoter containing three copies of either the NF-B or the AP1 sites of the CD95L promoter were linked to the luciferase reporter gene and these constructs were transiently transfected into J-27 T cells. […]

J-27 cells = assay: α-APO-1 induced CD95-triggered apoptosis in J-27 cells; format: cell-based; settings: 50 µM vitamin E 1 h, then α-APO-1 10 ng/ml with 10 ng/ml protein A (Fig. 2D)
Procedure: J-27 cells were cultured in the absence or presence of 50 µM vitamin E for 1 h and than, treated with α-APO-1 (10 ng/ml) antibody, DKFZ, Prof. Krammer, Trauth et al., Science 245 (1989), 301 in the presence of 10 ng/ml protein A for the indicated times.
as §1

NF-κB = assay: Luciferase reporter assay in J-27 T cells, three copies of the CD95L promoter NF-κB binding sites; format: cell-based; settings: J-27 cells, 50 µM vitamin E 1 h, PMA/ionomycin 8 h (Fig. 4)
Source text: as §2, §3

Egr binding site = assay: Luciferase reporter assay in J-27 T cells, three copies of the Egr consensus binding site (control); format: cell-based; settings: J-27 cells, 50 µM vitamin E 1 h, PMA/ionomycin 8 h, control (Fig. 4)
Source text: as §2, §3

CD95L promoter = assay: Luciferase reporter assay in transiently transfected J-27 T cells, 0.86-kb CD95L promoter; format: cell-based; settings: J-27 cells, 50 µM vitamin E 1 h, PMA/ionomycin 8 h (Fig. 4)
Source text: as §2, §3

Which results are given for `Cc1c(C)c2c(c(C)c1O)CC[C@@](C)(CCC[C@H](C)CCC[C@H](C)CCCC(C)C)O2` [vitamin E, α-tocopherol]?
α-CD3-induced cell death (Jurkat J-27 T cells): significantly reduced; reduced AICD [1]: 20-50%; levels of IFNγ mRNA (IFNγ mRNA [2]): not significantly changed; binding of AP-1 to its binding site of the CD95L promoter (+90 region) (AP-1 [3]): prevented binding; levels of IFNγ mRNA (IFNγ mRNA [4]): did not significantly influence; luciferase expression driven by the AP-1 site of the CD95L promoter (AP-1 [5]): greatly reduced; α-APO-1 induced CD95-triggered apoptosis (J-27 cells): did not prevent; luciferase expression driven by the NF-κB site of the CD95L promoter (NF-κB): greatly reduced; luciferase expression driven by the Egr binding site (Egr binding site): did not affect; luciferase expression driven by the CD95L promoter (CD95L promoter): greatly reduced
